{
  "source": "patent US7811605B2",
  "about": "“Method of formation of shape-retentive aggregates of gel particles and their uses” (ULURU Inc., priority 2002, dated 2010)",
  "test": "Entrapment and release of bromocresol green from particle aggregates in PBS, UV-Visible absorption",
  "assay_type": "physicochemical",
  "conditions": "1 mg dye in 2 mL Tween 80 stabilized pHEMA particles, 36 mg/mL, injected into PBS; discrete particles and 50:50 mixtures of two sizes",
  "protocol": "Injection of a dispersion of particles with a small molecule dissolved in the suspension medium forms an aggregate that traps some of the small molecule. In a typical experiment, 1 mg of bromocresol green dye was dissolved into 2 mL of a suspension of Tween 80 stabilized pHEMA particles (725 nm in diameter) with a hydrated polymer mass of 36 mg/mL. The dispersed particles and dye were injected into a solution of phosphate buffered saline. After 10 minutes of aggregation, the solution was shaken at 10 cycles per second to insure adequate mixing. 2 mL samples of supernatant were taken and characterized by UV-Visible absorption spectroscopy. […] In both cases, most of the small molecule is released within the first 3-5 hours, however, the burst effect is smaller in the mixed aggregate system.",
  "data": [
    {"smiles": "Cc1c(C2(c3cc(Br)c(O)c(Br)c3C)OS(=O)(=O)c3ccccc32)cc(Br)c(O)c1Br", "note": "[bromocresol green]", "values": [
      {"measurement": "time within which most of the small molecule is released", "result": "3 to 5", "unit": "h"}
    ]}
  ]
}
